# Experimental data: US10870638B2, “Pyridazinone compound or its salt, and herbicide containing it” (ISHIHARA SANGYO KAISHA, LTD., priority 2016, dated 2020)
# Legend:
# Assay in all cases: Test Example 1: foliar treatment, growth inhibition rate on 14th day
# Format in all cases: in vivo
# Conditions in all cases: active ingredient amount 31 g/ha, 14th day after application
# [1] = system: barnyardgrass (Echinochloa crus-qalli L.)
# Source text: (§1) Upland field soil was put into a 1/300,000 hectare pot, and seeds of various plants were sown. When the respective plants reached predetermined leaf stage ((1) barnyardgrass (Echinochloa crus-[…].): 0.5 to 2.9 leaf stage, (2) crabgrass (Digitaria sanquinalis L.): 0.5 to 3.0 leaf stage, (3) green foxtail (Setaria viridis L.): 0.5 to 3.2 leaf stage, (4) wild oat (Avena fatua L.): 0.4 to 1.2 leaf stage, (5) italian ryegrass (Lolium multiflorum Lam.): 0.4 to 2.0 leaf stage, (6) redroot pigweed (Amaranthus retroflexus L.): cotyledon stage to 2.2 leaf stage, (7) rice (Oryza sativa L.): 0.2 to 2.7 leaf stage, (8) corn (Zea mays L.): 1.7 to 3.6 leaf stage, (9) wheat (Triticum aestivum L.): 1.3 to 2.3 leaf stage, (10) soybean (Glycine max Merr.); primary leaf stage), wettable powders or emulsifiable concentrates of the compounds of the present invention prepared in accordance with a conventional preparation method, were weighed so as to achieve the prescribed active ingredient amounts, and diluted with water in an amount corresponding to 1,000 liters per 1 hectare (containing 0.1 vol % of an agricultural spreader (surfactant WK manufactured by MARUWA BIOCHEMICAL Co., Ltd.)), and the spray solutions thus prepared were applied for foliar treatment by a small sprayer. On the 14th day after the application, the state of growth of the respective plants was visually observed, and the herbicidal effect was evaluated by a growth inhibition rate (%) of 0 (equivalent to the non-treated area) to 100 (complete kill).
# corn (Zea mays L.) = system: corn (Zea mays L.)
# Source text: as §1
# [2] = system: crabgrass (Digitaria sanquinalis L.)
# Source text: as §1
# [3] = system: green foxtail (Setaria viridis L.)
# Source text: as §1
# [4] = system: italian ryegrass (Lolium multiflorum Lam.)
# Source text: as §1
# [5] = system: redroot pigweed (Amaranthus retroflexus L.)
# Source text: as §1
# rice (Oryza sativa L.) = system: rice (Oryza sativa L.)
# Source text: as §1
# [6] = system: soybean (Glycine max Merr.)
# Source text: as §1
# [7] = system: wheat (Triticum aestivum L.)
# Source text: as §1
# [8] = system: wild oat (Avena fatua L.)
# Source text: as §1
SMILES,Growth inhibition rate (%) Barnyardgrass [1] [%],Growth inhibition rate (%) Corn (corn (Zea mays L.)) [%],Growth inhibition rate (%) Crabgrass [2] [%],Growth inhibition rate (%) Green foxtail [3] [%],Growth inhibition rate (%) Italian ryegrass [4] [%],Growth inhibition rate (%) Redroot pigweed [5] [%],Growth inhibition rate (%) Rice (rice (Oryza sativa L.)) [%],Growth inhibition rate (%) Soybean [6] [%],Growth inhibition rate (%) Wheat [7] [%],Growth inhibition rate (%) Wild oat [8] [%]
Cc1ccc(Oc2ncc(C(F)(F)F)cc2Cl)cc1-c1c(OC(=O)c2nn(C)cc2C)c(C)nn(C)c1=O [1-136],100,99,98,100,98,0,25,0,90,98
CCc1nn(C)c(=O)c(-c2cc(Oc3ncc(C(F)(F)F)cc3Cl)ccc2C)c1OC(C)=O [1-137],100,95,75,80,93,0,85,15,85,93
CCc1nn(C)c(=O)c(-c2cc(Oc3ncc(C(F)(F)F)cc3Cl)ccc2C)c1OCOC [1-138],100,83,85,60,70,0,0,30,83,90
CCc1nn(C)c(=O)c(-c2cc(Oc3ncc(C(F)(F)F)cc3Cl)ccc2C)c1OC(C)OC(=O)OC (centres unmarked) [1-139],100,50,80,60,98,0,20,15,45,88
CC(=O)Oc1c(C(F)(F)F)nn(C)c(=O)c1-c1cc(Oc2ncc(C(F)(F)F)cc2Cl)ccc1C [1-142],90,50,88,40,20,20,15,40,20,85
Cc1ccc(Nc2ncc(C(F)(F)F)cc2Cl)cc1-c1c(O)c(C)nn(C)c1=O [1-144],30,10,10,60,0,0,20,20,0,10
CC(=O)Oc1c(C)nn(C)c(=O)c1-c1cc(N(C)c2ncc(C(F)(F)F)cc2Cl)ccc1C [1-145],93,40,90,70,20,0,0,35,50,40
CC(=O)Oc1c(C)nn(C)c(=O)c1-c1cc(Nc2ncc(C(F)(F)F)cc2Cl)ccc1C [1-146],98,75,90,93,70,0,0,10,85,88
COC(=O)OC(C)Oc1c(C)nn(C)c(=O)c1-c1cc(Oc2ncc(C(F)(F)F)cc2Cl)c(C)cc1C (centres unmarked) [1-151],99,35,99,95,83,30,65,0,10,95
CC(=O)Cn1ncc(O)c(-c2cc(Oc3ncc(C(F)(F)F)cc3Cl)ccc2C)c1=O [1-169],90,98,95,99,90,20,10,0,0,90
Cc1ccc(Oc2ncc(C#N)cc2Cl)cc1-c1c(O)c(C)nn(C)c1=O [Compound 2-2],70,10,70,75,10,20,0,0,0,10
CC(=O)Oc1c(C)nn(C)c(=O)c1-c1cc(Oc2ncc(C#N)cc2Cl)ccc1C [Compound 2-60],88,50,85,75,40,0,50,0,0,50
Cc1ccc(Oc2ncc3cc(Br)ccc3n2)cc1-c1c(O)c(C)nn(C)c1=O [Compound 2-90],90,0,0,75,10,0,0,0,20,0
Cc1ccc(Oc2ncc(Cl)cc2C(F)(F)F)cc1-c1c(O)c(C)nn(C)c1=O [Compound 2-92],80,80,30,10,78,20,0,0,0,50
